Patent US12606561B2, “Substituted pyrazolo[1,5-a][1,3,5]triazines as CDK inhibitors” (QURIENT CO., LTD., priority 2018, dated 2026)

Experiments:
CDK1/Cyclin B = molecular target: T1, CDK1/Cyclin B (Homo sapiens, UniProt P06493); experiment: Enzymatic assay for CDK1 (LANCE Ultra kinase assay, FRET based); type: biochemical; settings: ATP at Km; read-out: CDK1 enzymatic activity IC50
T1 construct: purchased Invitrogen PR4768C
Procedure: (§1) Enzymatic Binding Assay Protocol for CDK1, CDK2, CDK5 and CDK7
(§2) Inhibition activity of the respective compound on CDK kinase under Km value of ATP was tested in FRET based The LANCE® Ultra kinase assay (Perkin Elmer), which uses a ULight™-labeled peptide substrate and an appropriate Europium-labeled anti-phospho-antibody. […] After 1 min centrifugation at 1000 rpm, purified CDKs/Cyclin complex were added with the following concentrations respectively. […] Data were analyzed using XL Fit software.

CDK2/Cyclin A = molecular target: T2, CDK2/Cyclin A (Homo sapiens, UniProt P24941); experiment: Enzymatic assay for CDK2 (LANCE Ultra kinase assay, FRET based); type: biochemical; settings: ATP at Km
T2 construct: purchased Invitrogen PV6290
Procedure: as §1
(§3) Inhibition activity of the respective compound on CDK kinase under Km value of ATP was tested in FRET based The LANCE® Ultra kinase assay (Perkin Elmer), which uses a ULight™-labeled peptide substrate and an appropriate Europium-labeled anti-phospho-antibody. Test compounds were made with DMSO solutions, and then 4-fold serial dilutions for 8 doses were prepared using automated liquid handler (POD™ 810, Labcyte) and 80 nL/well of diluted compound solutions were added into the 384-well plates (Greiner, Cat #784075). And then 68 nM of ULight-MBP peptide (Perkin Elmer, Cat #TRF0109-M) and 5 ul/well of ATP (Sigma, Cat #A7699) were added to the plate. After 1 min centrifugation at 1000 rpm, purified CDKs/Cyclin complex were added with the following concentrations respectively. 24 uM for CDK1/Cyclin B (Invitrogen, Cat #PR4768C), 22 uM for CDK2/Cyclin A (Invitrogen, Cat #PV6290), 10 uM for CDK5/p25 (Invitrogen, Cat #PR8543B) and […] for CDK7/Cyclin H/MNAT1 (Invitrogen, Cat #PR6749B) were added to each corresponding plate for CDK1, CDK2, CDK5 and CDK7. Incubate at 23° C. for 60 min and then Eu-labeled anti-phospho-Myelin Basic Protein (PE, Cat #TRF0201-M) and EDTA (Invitrogen, Cat #15575038) mixture in Lance Detection Buffer (Perkin Elmer, Cat #CR97100) was added in each well. After additional incubation at 23° C. for 60 min, test articles were measured the fluorescence using Envision leader (Perkin Elmer, USA) [Laser as excitation light; […] as the first and the second emission filter]. Data were analyzed using XL Fit software.

CDK5/p25 = molecular target: T3, CDK5/p25 (Homo sapiens, UniProt Q00535); experiment: Enzymatic assay for CDK5 (LANCE Ultra kinase assay, FRET based); type: biochemical; settings: ATP at Km
T3 construct: purchased Invitrogen PR8543B
Procedure: as §1, §3

CDK7/Cyclin H/MNAT1 = molecular target: T4, CDK7/Cyclin H/MNAT1 (Homo sapiens, UniProt P50613); experiment: Enzymatic assay for CDK7 (LANCE Ultra kinase assay, FRET based); type: biochemical; settings: for IC50: ATP at Km
T4 construct: purchased Invitrogen PR6749B
Procedure: as §1, §2

A2780 = A2780 viability assay (CellTiter-Glo, 72 hours); type: cell-based; settings: Homo sapiens; A2780 cells
Procedure: Human […] cell line, MV4-11_(ATCC, Cat #CRL-9591), NSCLC (Non-small cell lung cancer) cell line H460 (ATCC, Cat #HTB-177), A2780 (ECACC, Cat #93112519) and OVCAR-3(ATCC, Cat #HTB-161) were obtained from ATCC. Cells were grown in RPMI-1640 media (Invitrogen, Cat #22400-089) supplemented with 10% FBS (Invitrogen, Cat #10099141) and 1% penicillin/streptomycin (Invitrogen, Cat #15070063) and cultured at 37° C., 5% CO2 in a humidified chamber. All cell lines were routinely tested for mycoplasma.
To effect of the CDK7 inhibitor to inhibit the growth of target cancer cells, viability assay were conducted a 72 hour time period. Briefly, the candidate cell line was plated in 96 well plate at the following density of cells respectively. 1×10^4 cells/well for MV4-11, 5×10^3 for H460 and OVCAR-3, and 1×10^3 for A2780. After 24 hours, the cells were treated with various concentrations of the compound (ranging from 0.0015 uM to 10 uM). DMSO solvent without compound served as a control and final DMSO concentration lest than 0.1%. After 72 hours of incubation at 37° C., 5% CO2 incubator, cells were analyzed for the viability using the CellTiter-Glo Luminescent Cell Viability Assay (Promega, Cat #G7570). All viability assays were performed in duplicate and Luminescence was read using an Envision (Perkin Elmer, USA). Data was analyzed using XLfit software.

T3 sequence (Q00535 whole entry): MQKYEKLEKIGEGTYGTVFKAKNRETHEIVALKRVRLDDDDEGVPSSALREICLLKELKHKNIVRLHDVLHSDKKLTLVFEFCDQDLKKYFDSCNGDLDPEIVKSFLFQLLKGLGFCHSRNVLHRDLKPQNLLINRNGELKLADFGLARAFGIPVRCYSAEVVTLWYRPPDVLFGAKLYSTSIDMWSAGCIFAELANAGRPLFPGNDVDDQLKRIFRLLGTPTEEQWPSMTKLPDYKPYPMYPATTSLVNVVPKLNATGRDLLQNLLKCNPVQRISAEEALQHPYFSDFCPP
T3 sequence (Q15078 99-307 partner limits assumed): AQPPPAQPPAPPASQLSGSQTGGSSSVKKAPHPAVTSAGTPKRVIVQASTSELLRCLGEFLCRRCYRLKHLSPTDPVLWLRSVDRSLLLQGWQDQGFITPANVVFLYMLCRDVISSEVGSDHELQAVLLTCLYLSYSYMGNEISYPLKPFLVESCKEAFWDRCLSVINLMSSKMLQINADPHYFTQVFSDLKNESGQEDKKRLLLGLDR
T4 sequence (P50613 whole entry): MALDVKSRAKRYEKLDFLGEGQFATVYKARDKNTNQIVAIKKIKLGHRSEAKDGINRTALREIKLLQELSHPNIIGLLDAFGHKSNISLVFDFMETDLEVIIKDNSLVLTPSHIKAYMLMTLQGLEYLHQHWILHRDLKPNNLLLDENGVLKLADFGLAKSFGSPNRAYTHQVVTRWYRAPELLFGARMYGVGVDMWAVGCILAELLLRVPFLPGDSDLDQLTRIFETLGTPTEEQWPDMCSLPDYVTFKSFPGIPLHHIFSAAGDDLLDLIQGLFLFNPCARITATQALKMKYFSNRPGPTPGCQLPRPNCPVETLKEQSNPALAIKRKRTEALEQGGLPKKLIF
T4 sequence (P51946 whole entry partner): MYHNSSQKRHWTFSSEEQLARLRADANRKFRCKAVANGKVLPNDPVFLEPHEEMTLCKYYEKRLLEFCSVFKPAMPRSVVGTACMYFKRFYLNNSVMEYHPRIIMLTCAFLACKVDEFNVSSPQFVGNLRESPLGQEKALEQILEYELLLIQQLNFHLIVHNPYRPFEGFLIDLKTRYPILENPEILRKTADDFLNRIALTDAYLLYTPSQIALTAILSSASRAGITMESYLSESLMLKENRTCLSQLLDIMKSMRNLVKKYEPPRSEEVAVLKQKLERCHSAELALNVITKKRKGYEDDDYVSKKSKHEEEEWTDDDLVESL
T4 sequence (P51948 whole entry partner): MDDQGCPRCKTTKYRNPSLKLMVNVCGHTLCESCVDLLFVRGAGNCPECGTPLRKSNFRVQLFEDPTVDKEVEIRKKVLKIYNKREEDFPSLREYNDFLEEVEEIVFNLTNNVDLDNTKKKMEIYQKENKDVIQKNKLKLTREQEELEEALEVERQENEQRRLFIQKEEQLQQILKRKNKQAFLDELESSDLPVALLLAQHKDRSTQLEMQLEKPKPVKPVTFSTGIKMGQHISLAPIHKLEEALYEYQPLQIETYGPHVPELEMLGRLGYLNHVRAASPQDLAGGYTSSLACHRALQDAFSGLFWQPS
T1 sequence (P06493 whole entry): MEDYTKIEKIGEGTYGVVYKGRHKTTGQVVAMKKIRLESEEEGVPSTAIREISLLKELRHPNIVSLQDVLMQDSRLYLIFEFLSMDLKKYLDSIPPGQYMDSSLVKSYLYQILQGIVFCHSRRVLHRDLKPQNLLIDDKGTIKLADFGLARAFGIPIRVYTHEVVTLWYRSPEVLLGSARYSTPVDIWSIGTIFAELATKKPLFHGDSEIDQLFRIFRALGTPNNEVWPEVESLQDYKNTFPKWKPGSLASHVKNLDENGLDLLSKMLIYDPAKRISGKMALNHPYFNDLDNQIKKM
T1 sequence (P14635 whole entry partner): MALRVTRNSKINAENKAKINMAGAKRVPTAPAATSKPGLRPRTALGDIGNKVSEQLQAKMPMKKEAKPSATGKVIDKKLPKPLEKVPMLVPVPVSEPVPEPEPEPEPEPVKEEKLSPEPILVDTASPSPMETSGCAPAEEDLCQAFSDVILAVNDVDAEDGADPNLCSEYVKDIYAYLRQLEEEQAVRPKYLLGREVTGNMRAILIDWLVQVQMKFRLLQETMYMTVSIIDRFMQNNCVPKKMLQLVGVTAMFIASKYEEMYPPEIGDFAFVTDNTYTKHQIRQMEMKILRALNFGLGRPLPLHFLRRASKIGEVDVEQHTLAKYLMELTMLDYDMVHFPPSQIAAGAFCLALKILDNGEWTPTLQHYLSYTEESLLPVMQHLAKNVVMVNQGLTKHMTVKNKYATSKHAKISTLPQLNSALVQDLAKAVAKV

SMILES | IC50 (CDK1/Cyclin B) [µM] | IC50 (CDK2/Cyclin A) [µM] | IC50 (CDK5/p25) [µM] | IC50 (CDK7/Cyclin H/MNAT1) [µM] | CDK1/CDK7: Selectivity of CDK7 inhibition over CDK1 inhibition (CDK7/Cyclin H/MNAT1) | CDK2/CDK7: Selectivity of CDK7 inhibition over CDK2 inhibition (CDK7/Cyclin H/MNAT1) | CDK5/CDK7: Selectivity of CDK7 inhibition over CDK5 inhibition (CDK7/Cyclin H/MNAT1) | IC50 (A2780) [µM]
C=C(F)C(=O)N1CCc2c(cccc2-c2ccccc2CNc2nc(OC3CCC(C)(C)NC3)nc3c(C(C)C)cnn23)C1 (stereo not shown) [Compound 191] | > 1 | > 1 | > 1 | < 0.1 | A (A indicates [fold] > 500) | A (A indicates [fold] > 500) | A (A indicates [fold] > 500) | < 1
C=CC(=O)Nc1ccc2c(-c3ccccc3CNc3cc(Cl)nc4c(C(C)C)cnn34)nccc2c1 [Compound 193] | > 1 | > 1 | > 1 | < 0.1 | A (A indicates [fold] > 500) | A (A indicates [fold] > 500) | A (A indicates [fold] > 500) | < 1
C=CC(=O)Nc1ccc2c(-c3ccccc3CNc3nc(Nc4cccc(OC5CCC(C)(C)NC5)c4)nc4c(C(C)C)cnn34)nccc2c1 (stereo not shown) [Compound 194] | > 1 | > 1 | > 1 | < 0.1 | A (A indicates [fold] > 500) | A (A indicates [fold] > 500) | A (A indicates [fold] > 500) | < 1
C=CC(=O)Nc1ccc2c(-c3ccccc3CNc3nc(-c4cccnc4)nc4c(C(C)C)cnn34)nccc2c1 [Compound 200] | > 1 | > 1 | > 1 | < 0.1 | B (B indicates 50 < [fold] ≤ 500) | B (B indicates 50 < [fold] ≤ 500) | B (B indicates 50 < [fold] ≤ 500) | < 1
CO[C@H]1CNCC[C@@H]1CNc1nc(NCc2ccccc2-c2nccc3cc(NC(=O)/C=C/CN(C)C)ccc23)n2ncc(C(C)C)c2n1 [Compound 131] | > 1 | > 1 | > 1 | < 0.1 | A (A indicates [fold] > 500) | A (A indicates [fold] > 500) | A (A indicates [fold] > 500) | –
CC(C)c1cnn2c(NCc3ccccc3-c3nccc4cc(NC(=O)/C=C/CN(C)C)ccc34)nc(O[C@@H]3CCCNC3)nc12 [Compound 152] | > 1 | > 1 | > 1 | < 0.1 | A (A indicates [fold] > 500) | A (A indicates [fold] > 500) | A (A indicates [fold] > 500) | –
COC1CCC(CNc2nc(NCc3ccccc3-c3nccc4cc(NC(=O)/C=C/CN(C)C)ccc34)n3ncc(C(C)C)c3n2)CC1 (stereo not shown) [Compound 136] | > 1 | > 1 | > 1 | 0.1 to 1 | B (B indicates 50 < [fold] ≤ 500) | B (B indicates 50 < [fold] ≤ 500) | B (B indicates 50 < [fold] ≤ 500) | –
C=C(F)C(=O)Nc1cccc2cc(-c3cccc(C)c3CNc3nc(NCC4CNCCO4)nc4c(C(C)C)cnn34)[nH]c12 (stereo not shown) [Compound 141] | > 1 | > 1 | > 1 | < 0.1 | A (A indicates [fold] > 500) | A (A indicates [fold] > 500) | A (A indicates [fold] > 500) | –
Cc1cccc(-c2cc3cccc(NC(=O)/C=C/CN(C)C)c3[nH]2)c1CNc1nc(NCC2CCNCC2)nc2c(C(C)C)cnn12 [Compound 139] | > 1 | > 1 | > 1 | < 0.1 | A (A indicates [fold] > 500) | A (A indicates [fold] > 500) | A (A indicates [fold] > 500) | –
CN[C@H]1CC[C@H](Nc2nc(NCc3ccccc3-c3nccc4cc(NC(=O)/C=C/CN(C)C)ccc34)n3ncc(C(C)C)c3n2)CC1 [Compound 145] | > 1 | > 1 | > 1 | < 0.1 | A (A indicates [fold] > 500) | A (A indicates [fold] > 500) | A (A indicates [fold] > 500) | –
C=C(F)C(=O)Nc1ccc2c(-c3ccccc3CNc3nc(NC[C@@H]4CNCCO4)nc4c(C(C)C)cnn34)nccc2c1 [Compound 149] | > 1 | > 1 | > 1 | < 0.1 | B (B indicates 50 < [fold] ≤ 500) | C (C indicates [fold] ≤ 50) | B (B indicates 50 < [fold] ≤ 500) | –
COC[C@H]1CC[C@H](Nc2nc(NCc3ccccc3-c3nccc4cc(NC(=O)/C=C/CN(C)C)ccc34)n3ncc(C(C)C)c3n2)CC1 [Compound 142] | > 1 | > 1 | > 1 | < 0.1 | A (A indicates [fold] > 500) | A (A indicates [fold] > 500) | A (A indicates [fold] > 500) | –
C=C(F)C(=O)Nc1ccc2c(-c3ccccc3CNc3nc(NC[C@H]4CNCCO4)nc4c(C(C)C)cnn34)nccc2c1 [Compound 148] | > 1 | > 1 | > 1 | < 0.1 | B (B indicates 50 < [fold] ≤ 500) | B (B indicates 50 < [fold] ≤ 500) | B (B indicates 50 < [fold] ≤ 500) | –
CNS(=O)(=O)C[C@H]1CC[C@H](Nc2nc(NCc3ccccc3-c3nccc4cc(NC(=O)/C=C/CN(C)C)ccc34)n3ncc(C(C)C)c3n2)CC1 [Compound 134] | > 1 | > 1 | > 1 | < 0.1 | A (A indicates [fold] > 500) | A (A indicates [fold] > 500) | A (A indicates [fold] > 500) | –
C=C(F)C(=O)Nc1ccc2c(-c3ccccc3CNc3nc(N[C@H]4CC[C@H](NC)CC4)nc4c(C(C)C)cnn34)nccc2c1 [Compound 146] | > 1 | > 1 | > 1 | < 0.1 | A (A indicates [fold] > 500) | A (A indicates [fold] > 500) | A (A indicates [fold] > 500) | –
